Laboratory results taken from patent US5349127A, “Expression of herbicide metabolizing cytochromes P450” (priority 1992, dated 1994).

Tests used:
S. griseolus PH3809 = assay: Metabolism of 10001 by strains transformed with pCS325 (Example 15); format: in vitro ADME, Streptomyces griseolus; conditions: substrate 10001
Description: (§1) S. griseolus PH2003, S. griseus PH4001, S. ambofaciens PH4002, and S. lividans JI1326 were transformed with the plasmid pPAT108. The transformed S. griseolus strain, PH3826, was cultured for 24 hours in 150 mls of sporulation broth with 5 ug/ml thiostrepton. The transformed S. griseus strain, PH3832, and the transformed S. ambofaciens strain, PH3834, were cultured for 24 hours in 150 mls of trypticase soy broth with 5 ug/ml thiostrepton. The transformed S. lividans strain, PH3822, was similarly cultured in 150 mls of YEME broth with 5 ug/ml thiostrepton. Three hours before harvesting the cells, 50 mls of fresh medium of the same type with 5 ug/ml thiostrepton was added to each culture. The cells from each of the cultures were harvested by centrifugation, washed twice with 50 mMMOPS, pH7.2 and resuspended in five cell volumes of MOPS containing 0.2% glucose and 120 ug/ml of the sulfonylurea 10001. The cell suspensions were incubated at 30° C. with shaking and aliquots were removed at 0.5, 1, 2 and 4 hours. The supernatant of each aliquot was analyzed by HPLC and the concentration of the sulfonylurea compound 10001 and its metabolites 10002 and 10003 were determined.
(§2) S. griseolus PH2003, S. griseus PH4001, S. ambofaciens PH4002, and S. lividans JI1326 were transformed with the plasmid pCS325. Cells of the transformed strains of S. griseolus PH3809, S. griseus PH3817, S. ambofaciens PH3818, and S. lividans PH3816, were grown and treated as described in Example 14, and the concentrations of the sulfonylurea compound 10001 and its metabolites 10002 and 10003 were determined.

S. ambofaciens PH3818 = assay: as above; format: in vitro ADME, Streptomyces ambofaciens; conditions: substrate 10001
Description: as §1, §2

S. lividans C37 = assay: Metabolism of 10001 in growing culture, HPLC of supernatant (Example 4); format: in vitro ADME, Streptomyces lividans; conditions: 0.12 mg/ml 10001 in culture
Description: Herbicides and their metabolites are measured by HPLC as described by Romesser et al., BBRC 140: 650-659 (1986), herein incorporated by reference, except that 0.1% H3 PO4 is used in both solvents. Chromatographic identity and quantitation of the herbicides and their resulting metabolites is determined by comparing them chromatographically with authentic standard compounds. Identity of the resulting metabolites is also confirmed by UV spectroscopy.
Separate cultures (50 ml) inoculated with S. lividans C37, S. lividans transformed with pCAO400 or S. lividans transformed with pCAO401 in sporulation broth containing 0.12 mg/ml of 10001 were grown with shaking at 30° C. Aliquots (1.5 ml) of each culture were removed at 24, 32, 48 and 56 hours after inoculation and the supernatant of each aliquot was analyzed by HPLC for its concentration of 10001 and its metabolites 10002 or 10003.

[1] = tested on: Tomato seedlings (Lysopersicon esculentum cv. Pixie); assay: Tomato transplants in sulfonylurea-treated soil after dipping in water, YEME or S. lividans culture (Example 13); format: in vivo; conditions: for Mean value of visual ratings / Visual Injury Ratings of individual transplanted tomatoes: 19 DAT
Description: A 2 liter culture of S. lividans pCAO200SU1-FeS-B#9 was grown in YEME medium at 30° C. until the culture was in […] log phase of growth and the absorbance in a spectrophotometer at a wavelength of 600 nm was between about 1.0 and 1.3. Tomato seedlings (Lysopersicon esculentum cv. "Pixie") were seeded directly into soiless media, Oasis Wedges® (Smithers-Oasis, Kent, Ohio), fertilized with 500 ppm Peters'® fertilizer (20:19:18); and 300 ppm of iron was added weekly. As the tomato plants develop, roots ramify through the Oasis Wedges®. The tomato plants were transplanted to pots when they were 4 inches tail as follows.
Five inch standard round pots (without holes) were filled with Sassafras sandy loam (pH 6.7, 0.8% OM) and an oasis cube. The contents of the each pot was sprayed, prior to transplanting the tomato plants, with either 10001, in 25% dry flowable composition (25 DF) or 10010, 75 DF at rates of 16, 32, 64, 125 or 250 grams of active ingredient per hectare (g ai/ha). The Oasis cube was then removed and replaced by another containing a transplant tomato plant dipped in either water (treatment A), YEME medium (treatment B)-or the culture of S. lividans pCAO200SU1-FeS-B#9 described above (treatment C). Six transplant tomato plants received each of the three treatments, and five transplant tomato plants (to serve as controls) received no treatment. The resulting tomato plants were grown in a greenhouse for 19 days and watered twice daily, after which they were evaluated for visual injury (100=complete kill, other numbers=percentage of injury relative to controls [subjectively determined], 0=no injury) with respect to the water dipped, no-herbicide control treatments. The plants were left in the greenhouse for one more week after which the fresh weights of the shoots of the plants were determined. The roots of the plants which received these treatments and controls were examined too.

[2] = 16 g ai/ha, Treatment A (water)
[3] = 16 g ai/ha, Treatment A (water), scale 0-100
[4] = 16 g ai/ha, Treatment B (YEME), scale 0-100
[5] = 16 g ai/ha, Treatment C (pCAO200SU1-FeS-B#9)
[6] = 16 g ai/ha, Treatment C (pCAO200SU1-FeS-B#9), scale 0-100
[7] = 32 g ai/ha, Treatment A (water)
[8] = 32 g ai/ha, Treatment A (water), scale 0-100
[9] = 32 g ai/ha, Treatment B (YEME), scale 0-100
[10] = 32 g ai/ha, Treatment C (pCAO200SU1-FeS-B#9)
[11] = 32 g ai/ha, Treatment C (pCAO200SU1-FeS-B#9), scale 0-100
[12] = 64 g ai/ha, Treatment A (water), scale 0-100
[13] = 64 g ai/ha, Treatment B (YEME), scale 0-100
[14] = 64 g ai/ha, Treatment C (pCAO200SU1-FeS-B#9), scale 0-100
[15] = 125 g ai/ha, Treatment A (water), scale 0-100
[16] = 125 g ai/ha, Treatment B (YEME), scale 0-100
[17] = 125 g ai/ha, Treatment C (pCAO200SU1-FeS-B#9), scale 0-100
[18] = 250 g ai/ha, Treatment A (water), scale 0-100, 100 = complete kill
[19] = 250 g ai/ha, Treatment B (YEME), scale 0-100
[20] = 250 g ai/ha, Treatment C (pCAO200SU1-FeS-B#9), scale 0-100

SMILES: COc1cc(Cl)nc(NC(=O)NS(=O)(=O)c2ccccc2C(=O)O)n1 [compound 10003, N-[(4-chloro-6-methoxy-pyrimidin-2-yol)aminocarbonyl]-2-carboxybenzenesulfonamide]
- concentration in supernatant (S. griseolus PH3809; 0.5 h): 6 µM
- concentration in supernatant (S. griseolus PH3809; 1.0 h): 16 µM
- concentration in supernatant (S. griseolus PH3809; 2.0 h): 24 µM
- concentration in supernatant (S. griseolus PH3809; 4.0 h): 25 µM
- concentration in supernatant (S. ambofaciens PH3818; 0.5 h): 1 µM
- concentration in supernatant (S. ambofaciens PH3818; 1.0 h): 3 µM
- concentration in supernatant (S. ambofaciens PH3818; 2.0 h): 7 µM
- concentration in supernatant (S. ambofaciens PH3818; 4.0 h): 13 µM
- concentration in supernatant (S. lividans C37; 0 h): 0 µM
- concentration in supernatant (S. lividans C37; 24 h): 0 µM
- concentration in supernatant (S. lividans C37; 32 h): 0 µM
- concentration in supernatant (S. lividans C37; 48 h): 3 µM
- concentration in supernatant (S. lividans C37; 56 h): 3 µM

SMILES: COC(=O)c1ccccc1S(=O)(=O)NC(=O)Nc1nc(C)cc(C)n1 [compound 10010, N-[(4,6-dimethylpyrimidin-2-yl)aminocarbonyl]-2-methoxycarbonylbenzenesulfonamide]
- Mean Shoot Fresh Weights [1, 2]: 1.28 grams
- Mean value of visual ratings [1, 3]: 70.0
- Mean Shoot Fresh Weights ([1]; 16 g ai/ha, Treatment B (YEME)): 1.58 grams
- Mean value of visual ratings [1, 4]: 63.3
- Mean Shoot Fresh Weights [1, 5]: 2.10 grams
- Mean value of visual ratings [1, 6]: 60
- Mean Shoot Fresh Weights [1, 7]: 0.65 grams
- Mean value of visual ratings [1, 8]: 93.3
- Visual Injury Ratings of individual transplanted tomatoes [1, 8]: 100,100,100
- Mean Shoot Fresh Weights ([1]; 32 g ai/ha, Treatment B (YEME)): 1.60 grams
- Mean value of visual ratings [1, 9]: 66.7
- Mean Shoot Fresh Weights [1, 10]: 1.79 grams
- Mean value of visual ratings [1, 11]: 56.7
- Mean value of visual ratings [1, 12]: 90.0
- Visual Injury Ratings of individual transplanted tomatoes [1, 12]: 80,100,100
- Mean value of visual ratings [1, 13]: 83.3
- Mean value of visual ratings [1, 14]: 86.7
- Visual Injury Ratings of individual transplanted tomatoes [1, 14]: 60,100,100
- Mean value of visual ratings [1, 15]: 91.7
- Visual Injury Ratings of individual transplanted tomatoes [1, 15]: 90,100,100
- Mean value of visual ratings [1, 16]: 83.3
- Mean value of visual ratings [1, 17]: 76.7
- Visual Injury Ratings of individual transplanted tomatoes ([1]; 250 g ai/ha, Treatment A (water), scale 0-100): 90,100,100
- Mean value of visual ratings [1, 18]: 95.0
- Mean value of visual ratings [1, 19]: 86.7
- Mean value of visual ratings [1, 20]: 85
- visual injury across treatments A, B, C ([1]; all rates): injured to similar extents regardless of the treatment they received

SMILES: CCOC(=O)c1ccccc1S(=O)(=O)NC(=O)Nc1nc(Cl)cc(OC)n1 [compound 10001, N-[(4-chloro-6-methoxy-pyrimidin-2-yl)aminocarbonyl]-2-ethoxycarbonylbenzenesulfonamide]
- Mean Shoot Fresh Weights [1, 2]: 3.25 grams
- Mean value of visual ratings [1, 3]: 43.3
- Mean Shoot Fresh Weights ([1]; 16 g ai/ha, Treatment B (YEME)): 2.35 grams
- Mean value of visual ratings [1, 4]: 51.7
- Mean Shoot Fresh Weights [1, 5]: 3.1 grams
- Mean value of visual ratings [1, 6]: 40
- Mean Shoot Fresh Weights [1, 7]: 2.49 grams
- Mean value of visual ratings [1, 8]: 68.3
- Mean Shoot Fresh Weights ([1]; 32 g ai/ha, Treatment B (YEME)): 1.76 grams
- Mean value of visual ratings [1, 9]: 58.3
- Mean Shoot Fresh Weights [1, 10]: 3.37 grams
- Mean value of visual ratings [1, 11]: 50
- visual injury, treatment C versus treatments A or B ([1]; 64, 125, and 250 g ai/ha): significantly less injured
- Mean Shoot Fresh Weights ([1]; 64 g ai/ha, Treatment A (water)): 1.37 grams
- Mean value of visual ratings [1, 12]: 66.7
- Mean Shoot Fresh Weights ([1]; 64 g ai/ha, Treatment B (YEME)): 1.40 grams
- Mean value of visual ratings [1, 13]: 63.3
- Mean Shoot Fresh Weights ([1]; 64 g ai/ha, Treatment C (pCAO200SU1-FeS-B#9)): 2.94 grams
- Mean value of visual ratings [1, 14]: 43.3
- Shoot weight, dipped in pCAO200SU1-FeS-B#9 culture versus water or YEME ([1]; 125 g ai/ha): 2-3 times
- Mean Shoot Fresh Weights ([1]; 125 g ai/ha, Treatment A (water)): 0.80 grams
- Mean value of visual ratings [1, 15]: 90
- Mean Shoot Fresh Weights ([1]; 125 g ai/ha, Treatment B (YEME)): 1.06 grams
- Mean value of visual ratings [1, 16]: 70
- Mean Shoot Fresh Weights ([1]; 125 g ai/ha, Treatment C (pCAO200SU1-FeS-B#9)): 2.72 grams
- Mean value of visual ratings [1, 17]: 50
- Shoot weight, dipped in pCAO200SU1-FeS-B#9 culture versus water or YEME ([1]; 250 g ai/ha): 3-4 times greater
- Mean Shoot Fresh Weights ([1]; 250 g ai/ha, Treatment A (water)): 0.63 grams
- Mean value of visual ratings [1, 18]: 91.7
- Mean Shoot Fresh Weights ([1]; 250 g ai/ha, Treatment B (YEME)): 0.40 grams
- Mean value of visual ratings [1, 19]: 81.7
- Mean Shoot Fresh Weights ([1]; 250 g ai/ha, Treatment C (pCAO200SU1-FeS-B#9)): 2.41 grams
- Mean value of visual ratings [1, 20]: 50.0
- concentration in supernatant (S. griseolus PH3809; 0.5 h): 175 µM
- concentration in supernatant (S. griseolus PH3809; 1.0 h): 108 µM
- concentration in supernatant (S. griseolus PH3809; 2.0 h): 0 µM
- concentration in supernatant (S. griseolus PH3809; 4.0 h): 0 µM
- concentration in supernatant (S. ambofaciens PH3818; 0.5 h): 286 µM
- concentration in supernatant (S. ambofaciens PH3818; 1.0 h): 265 µM
- concentration in supernatant (S. ambofaciens PH3818; 2.0 h): 210 µM
- concentration in supernatant (S. ambofaciens PH3818; 4.0 h): 129 µM
- concentration in supernatant (S. lividans C37; 0 h): 325 µM
- concentration in supernatant (S. lividans C37; 24 h): 320 µM
- concentration in supernatant (S. lividans C37; 32 h): 295 µM
- concentration in supernatant (S. lividans C37; 48 h): 281 µM
- concentration in supernatant (S. lividans C37; 56 h): 280 µM
